Experimental data from patent publication US20230143751A1, “Aromatic Compound And Use Thereof In Preparing Antineoplastic Drugs” (Shanghai Zheye Biotechnology Co. Ltd., priority 2020, published 2023).
Like-named read-outs stand apart in the source and are kept apart here.

Assays:
[1] = test system: NCI-H358 cells; assay: Cell proliferation activity of NCI-H358 by CellTiter-Glo reagent; assay type: cell-based
Procedure: NCI-H358 cells in exponential growth phase were digested with trypsin-EDTA, plated in a 96-well plate with 2000-3000 cells per well, and incubated overnight at 37° C. with 5% CO2. […] After the incubation, CellTiter-Glo test reagent with an equal volume was added into each well and the obtained 96-well plate was incubated after shaking. The chemiluminescence values were determined by microplate reader, and the IC50 values of the test compounds inhibiting the proliferation of NCI-H358 cells were fitted and calculated by GraphPad Prism software.
The test method of inhibitory activity was the same as that in Test 3 in “Biological Tests” part.

[2] = Preliminary safety test, 5-day escalating oral dosing in Balb/c mice; assay type: in vivo
Procedure: Test samples: Compound 3-2, Compound 3-6, Compound 3-12M, Compound 3-20, and Compound 4-8.
Animal species and number: Balb/c; 6 animals per group (half male and half female).
Administration mode: oral administration by gavage.
Animal grouping and administration dose: vehicle blank group, Compound 3-2 group (200 mg/kg, 400 mg/kg, 800 mg/kg), Compound 3-6 group (200 mg/kg, 400 mg/kg, 800 mg/kg), Compound 3-12M group (200 mg/kg, 400 mg/kg, 800 mg/kg), Compound 3-20 group (200 mg/kg, 400 mg/kg, 800 mg/kg), Compound 4-8 group (200 mg/kg, 400 mg/kg, 800 mg/kg).
Administration frequency: once a day for 5 days.
General clinical observations were performed 2 times a day (once in the morning and once in the afternoon) during the test period. Death, morbidity, respiration, secretions, feces, and diet, drinking situation and so on were observed, and the changes in body weight of the mice during the administration period were recorded. The animals in each group were euthanized after the administration, and all animals were dissected and subjected to gross observation.

[3] = test system: MIA PaCa-2-derived xenograft tumor; assay: Pharmacodynamics test of MIA PaCa-2-derived xenograft tumor model in nude mice (test 6); assay type: in vivo
Procedure: Animal species and number: Balb/c Nude; 6 animals per group.
Test samples: Compound 3-2, Compound 3-6, Compound 3-20, Compound 3-12M.
Test groups: blank solvent control group; Compound 3-2 (10 mg/kg, QD×15 days), Compound 3-6 (10 mg/kg, QD×15 days), Compound 3-20 (10 mg/kg, QD×15 days), Compound 3-12M (10 mg/kg, QD×15 days).
(§1) Animal model establishment: MIA paca-2 tumor cells in logarithmic growth phase were cultured in vitro and collected, and inoculated subcutaneously into the right back of nude mice at a quantity of 5×10^6 cells/each. When the tumor volume reached 150-300 mm^3, the tumor-bearing nude mice were randomly grouped. Subsequently, the animals in each group were administered, and the day of the first administration was defined as day 1 of the test.
(§2) Administration route and frequency: oral administration by gavage; once a day.
(§3) General state observation: observation time and frequency: once a day; observation indexes or contents: including but not limited to administration location, appearance and signs, general behavioral activities, mental status, death and other abnormal performance of the animals. The animals were euthanized at the end of the test.
Tumor volume calculation: V=½×long diameter×short diameter^2 (mm^3). Tumor growth inhibition rate TGI (%) is used to evaluate the tumor inhibition efficacy of the compounds. TGI (%)=[1−(mean tumor volume in treatment group at the end of administration−mean tumor volume in treatment group at the beginning of administration)/(mean tumor volume in control group at the end of administration−mean tumor volume in control group at the beginning of administration)]×100%.

[4] = biological target: KRAS G12C (Homo sapiens, UniProt P01116, G12C); assay: Effect on KRAS(G12C) enzyme activity (KRAS G12C/c-Raf binding, Eu/d2 energy transfer); assay type: biochemical
Procedure: Compound stock solution was taken, and the test compound was subjected to gradient elution in DMSO. The above diluted compound was added into a quantitative volume of enzyme reaction buffer and subjected to oscillation on a microplate oscillator for 20 min.
4 μL of enzyme was transferred to a 384-well reaction plate. 1 μL of the test compound was added into the 384-well reaction plate. The plate was sealed with sealing film, and the reaction plate with the compound was centrifuged at 1000 rpm for 1 min and incubated for 60 min. 5 μL of a mixture of substrate and antibody was transferred to the 384-well reaction plate. The plate was sealed with sealing film, then centrifuged at 1000 rpm for 1 min and incubated for 120 min at room temperature.
Ratiopositive control: average value of the ratios of 10 positive control wells; Rationegative control: average value of the ratios of 10 negative control wells.

[5] = test system: NCI-H358-derived xenograft tumor; assay: Pharmacodynamics study of H358-derived xenograft tumor model (test 9); assay type: in vivo, nude mice; conditions: 3-12M 20 and 100 mg/kg, ARS1620 100 mg/kg, i.g., QD×28 days
Procedure: Animal species and number: Balb/c Nude; 10 animals per group.
Test samples: Compound ARS1620 (the representative inhibitor targeting KRAS G12C tumor
target, acquired by purchase) and Compound 3-12M.
Test groups: blank solvent control group;
Compound ARS1620 (100 mg/kg, i.g., QD×28 days);
Compound 3-12M (20 mg/kg, i.g., QD×28 days);
Compound 3-12M (100 mg/kg, i.g., QD×28 days).
as §1, with “NCI-H358” for “Animal model establishment: MIA paca-2”, “150˜300” for “150-300”
as §2, §3
Tumor volume calculation: V=½×long diameter×short diameter^2 (mm^3).

[6] = biological target: T1, human-derived MDR1 (MDR1 coding P-gp) transporter protein (Homo sapiens, UniProt P08183); assay: Transport effect of transporter MDR1 (vesicle uptake, P-gp substrate assessment); assay type: in vitro ADME; conditions: vesicles expressing human-derived MDR1, 37° C.
T1 construct: expressed in transfected cells; host or cells: membrane vesicles expressing human MDR1
Procedure: For this test, fluorescein and N-methylquinidine were used as the probe substrates in positive control group. ATP-containing test sample or positive control samples were prepared and pre-incubated with MDR1 vesicles at 37° C. After the pre-incubation, the two kinds of samples were mixed and co-incubated at 37° C. The samples were then transferred to a 96-well filter plate, and washed by suction filtration. The vesicles on the filter plate were lysed by using 80% of methanol, and then centrifuged to collect the filtrate. The filtrate was added with pre-cooled methanol containing internal standard. After the centrifugation, the obtained supernatant was taken and the test sample or positive control samples were detected.

KRAS G12C, sequence (P01116 1-188 isoform P01116-2 G12C): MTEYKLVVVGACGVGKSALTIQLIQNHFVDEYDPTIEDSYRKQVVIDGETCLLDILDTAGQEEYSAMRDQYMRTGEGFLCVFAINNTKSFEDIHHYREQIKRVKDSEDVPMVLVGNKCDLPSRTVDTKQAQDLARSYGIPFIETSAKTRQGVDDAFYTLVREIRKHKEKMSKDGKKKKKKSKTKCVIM
T1 sequence (P08183 whole entry): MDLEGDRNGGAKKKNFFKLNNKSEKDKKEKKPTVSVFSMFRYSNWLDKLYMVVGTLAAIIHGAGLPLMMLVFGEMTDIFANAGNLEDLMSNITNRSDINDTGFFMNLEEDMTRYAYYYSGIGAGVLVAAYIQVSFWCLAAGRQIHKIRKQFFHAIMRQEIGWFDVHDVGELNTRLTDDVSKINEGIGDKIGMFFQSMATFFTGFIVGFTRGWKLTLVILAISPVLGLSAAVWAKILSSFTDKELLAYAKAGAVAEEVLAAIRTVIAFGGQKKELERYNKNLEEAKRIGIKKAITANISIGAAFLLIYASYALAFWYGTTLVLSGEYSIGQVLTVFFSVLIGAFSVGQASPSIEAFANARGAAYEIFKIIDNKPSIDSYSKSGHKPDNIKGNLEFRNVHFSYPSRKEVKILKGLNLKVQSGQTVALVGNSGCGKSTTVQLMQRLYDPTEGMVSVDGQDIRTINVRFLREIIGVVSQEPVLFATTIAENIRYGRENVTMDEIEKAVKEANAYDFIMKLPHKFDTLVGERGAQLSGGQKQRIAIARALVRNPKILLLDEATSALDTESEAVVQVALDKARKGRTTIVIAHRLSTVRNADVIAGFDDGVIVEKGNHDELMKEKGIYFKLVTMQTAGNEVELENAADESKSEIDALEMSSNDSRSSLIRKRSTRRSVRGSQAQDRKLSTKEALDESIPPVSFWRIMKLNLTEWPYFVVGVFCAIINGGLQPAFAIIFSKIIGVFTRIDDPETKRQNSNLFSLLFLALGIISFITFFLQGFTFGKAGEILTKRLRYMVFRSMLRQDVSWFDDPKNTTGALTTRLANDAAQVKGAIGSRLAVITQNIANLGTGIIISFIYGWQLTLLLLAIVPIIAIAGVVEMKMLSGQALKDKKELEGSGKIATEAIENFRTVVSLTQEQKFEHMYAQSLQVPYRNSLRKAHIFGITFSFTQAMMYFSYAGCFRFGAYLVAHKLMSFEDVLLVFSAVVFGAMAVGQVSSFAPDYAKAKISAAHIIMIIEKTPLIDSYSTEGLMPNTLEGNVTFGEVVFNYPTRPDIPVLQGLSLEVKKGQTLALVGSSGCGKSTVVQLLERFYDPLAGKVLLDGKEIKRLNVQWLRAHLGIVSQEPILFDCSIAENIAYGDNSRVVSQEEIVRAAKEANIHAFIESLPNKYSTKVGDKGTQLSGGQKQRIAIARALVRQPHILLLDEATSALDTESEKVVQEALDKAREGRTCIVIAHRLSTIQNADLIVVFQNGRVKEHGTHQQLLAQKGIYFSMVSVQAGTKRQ

SMILES: [2H]C([2H])=Cc1cccc(F)c1-c1nc2c(cc1Cl)c(N1CCN(C(=O)C=C)C[C@@H]1C)nc(=O)n2-c1c(C)ccnc1C(C)C [Compound 3-12M]
- anti-cell proliferation activity against KRAS G12C mutant type cells NCI-H358 (in words) ([1]; 72 h, CellTiter-Glo): significant anti-cell proliferation activity
- IC50 ([1]; Homo sapiens, NCI-H358, 72 h, 72 h, CellTiter-Glo, test 3, read-out: IC50 value of cell proliferation inhibitory activity of NCI-H358): < 50 nM
- cell proliferation inhibitory activity on NCI-H358 compared with the corresponding compound with axial chiral S configuration (in words) ([1]; NCI-H358): significantly better
- cell proliferation inhibitory activity of R-configuration compound relative to the corresponding axial chiral S-configuration compound ([1]; NCI-H358, 3-12M versus 3-12P): more than 5 times
- cell proliferation inhibitory activity of NCI-H358 compared with AMG510 (in words) ([1]; test 8): better than AMG510
- IC50 ([1]; test 8, method of test 3, read-out: IC50 of proliferation inhibitory activity of the compound on NCI-H358 cell line): 8 nM
- MTD at 5 days ([2]; both sexes, mouse, in vivo, oral gavage, 5 days, initially suggested, read-out: maximum tolerated dose): > 800 mg/kg
- water and food intake, activity and body weight during the administration period (in words) ([2]; oral gavage once a day for 5 days, 200 to 800 mg/kg): no significant abnormality was showed
- inhibition effect on the growth of subcutaneously transplanted tumors derived from pancreatic cancer MIA paca-2 cells in nude mice (in words) ([3]; 10 mg/kg QD×15 days): significant inhibition effect
- tumor inhibition rate compared with Compound 3-20 (in words) ([3]; 10 mg/kg QD×15 days): higher than that of Compound 3-20
- Tumor inhibition rate (%) ([3]; MIA PaCa-2 xenograft, nude mice, 10 mg/kg oral gavage QD×15 days): +++ (“+++” represents a tumor inhibition rate of >80%)
- inhibitory activity on KRAS G12C enzyme compared with AMG510 (in words) [4]: remarkable better
- inhibitory activity on tumor growth in vivo compared with ARS1620 (in words) [5]: significantly better than that of ARS1620
- substrate for P-gp (in words) [6]: not a substrate for P-gp
